{"source": "patent US8222278B2", "about": "“Treatment of attention-deficit/hyperactivity disorder” (Abbott Laboratories, priority 2008, dated 2012)", "test_system": "adults with ADHD", "test": "Study A: treatment-emergent adverse events (safety dataset)", "procedure": "During each visit, blood pressure, heart rate, weight, medication accountability and tolerability, and adverse effects were assessed.\nThe safety dataset consisted of all subjects who took at least one dose of study drug. The reasons for discontinuation and the treatment-emergent adverse events were summarized by the treatment under which the discontinuation or event was reported.\nTreatment-emergent adverse events were those that began or worsened following the first dose of study drug in Period 1. Adverse event monitoring was conducted at each study visit and until 30 days following discontinuation of study drug. Other routine safety assessments included vital signs, electrocardiograms, physical examinations, brief neurological examinations and laboratory tests.", "data": [{"smiles": "Clc1cc(N2C[C@@H]3CN[C@@H]3C2)cnc1Cl", "note": "[ABT-894, 3-(5,6-Dichloro-pyridin-3-yl)-1S,5S-3,6-diazabicyclo[3.2.0]heptane]", "values": [{"measurement": "Any Adverse Event, % of subjects", "setting": "ABT-894 1 mg QD, N = 46", "value": "(69.6) %"}, {"measurement": "Any Adverse Event, number of subjects", "setting": "ABT-894 1 mg QD, N = 46", "value": 32, "unit": "subjects"}, {"measurement": "Decreased appetite, % of subjects", "setting": "ABT-894 1 mg QD, N = 46", "value": "(0) %"}, {"measurement": "Decreased appetite, number of subjects", "setting": "ABT-894 1 mg QD, N = 46", "value": 0, "unit": "subjects"}, {"measurement": "Diarrhea, % of subjects", "setting": "ABT-894 1 mg QD, N = 46", "value": "(0) %"}, {"measurement": "Diarrhea, number of subjects", "setting": "ABT-894 1 mg QD, N = 46", "value": 0, "unit": "subjects"}, {"measurement": "Dizziness, % of subjects", "setting": "ABT-894 1 mg QD, N = 46", "value": "(4.3) %"}, {"measurement": "Dizziness, number of subjects", "setting": "ABT-894 1 mg QD, N = 46", "value": 2, "unit": "subjects"}, {"measurement": "Dry mouth, % of subjects", "setting": "ABT-894 1 mg QD, N = 46", "value": "(4.3) %"}, {"measurement": "Dry mouth, number of subjects", "setting": "ABT-894 1 mg QD, N = 46", "value": 2, "unit": "subjects"}, {"measurement": "Fatigue, % of subjects", "setting": "ABT-894 1 mg QD, N = 46", "value": "(4.3) %"}, {"measurement": "Fatigue, number of subjects", "setting": "ABT-894 1 mg QD, N = 46", "value": 2, "unit": "subjects"}, {"measurement": "Feeling hot and cold, % of subjects", "setting": "ABT-894 1 mg QD, N = 46", "value": "(0) %"}, {"measurement": "Feeling hot and cold, number of subjects", "setting": "ABT-894 1 mg QD, N = 46", "value": 0, "unit": "subjects"}, {"measurement": "Feeling jittery, % of subjects", "setting": "ABT-894 1 mg QD, N = 46", "value": "(0) %"}, {"measurement": "Feeling jittery, number of subjects", "setting": "ABT-894 1 mg QD, N = 46", "value": 0, "unit": "subjects"}, {"measurement": "Headache, % of subjects", "setting": "ABT-894 1 mg QD, N = 46", "value": "(8.7) %"}, {"measurement": "Headache, number of subjects", "setting": "ABT-894 1 mg QD, N = 46", "value": 4, "unit": "subjects"}, {"measurement": "Lethargy, % of subjects", "setting": "ABT-894 1 mg QD, N = 46", "value": "(0) %"}, {"measurement": "Lethargy, number of subjects", "setting": "ABT-894 1 mg QD, N = 46", "value": 0, "unit": "subjects"}, {"measurement": "Muscle Strain, % of subjects", "setting": "ABT-894 1 mg QD, N = 46", "value": "(6.5) %"}, {"measurement": "Muscle Strain, number of subjects", "setting": "ABT-894 1 mg QD, N = 46", "value": 3, "unit": "subjects"}, {"measurement": "Nasal congestion, % of subjects", "setting": "ABT-894 1 mg QD, N = 46", "value": "(0) %"}, {"measurement": "Nasal congestion, number of subjects", "setting": "ABT-894 1 mg QD, N = 46", "value": 0, "unit": "subjects"}, {"measurement": "Nausea, % of subjects", "setting": "ABT-894 1 mg QD, N = 46", "value": "(4.3) %"}, {"measurement": "Nausea, number of subjects", "setting": "ABT-894 1 mg QD, N = 46", "value": 2, "unit": "subjects"}, {"measurement": "Parathesia, % of subjects", "setting": "ABT-894 1 mg QD, N = 46", "value": "(0) %"}, {"measurement": "Parathesia, number of subjects", "setting": "ABT-894 1 mg QD, N = 46", "value": 0, "unit": "subjects"}, {"measurement": "Sleep disturbances, % of subjects", "setting": "ABT-894 1 mg QD, N = 46", "value": "(4.3) %"}, {"measurement": "Sleep disturbances, number of subjects", "setting": "ABT-894 1 mg QD, N = 46", "value": 2, "unit": "subjects"}, {"measurement": "Somnolence, % of subjects", "setting": "ABT-894 1 mg QD, N = 46", "value": "(13.0) %"}, {"measurement": "Somnolence, number of subjects", "setting": "ABT-894 1 mg QD, N = 46", "value": 6, "unit": "subjects"}, {"measurement": "Upper RTI, % of subjects", "setting": "ABT-894 1 mg QD, N = 46", "value": "(2.2) %"}, {"measurement": "Upper RTI, number of subjects", "setting": "ABT-894 1 mg QD, N = 46", "value": 1, "unit": "subjects"}, {"measurement": "Vomiting, % of subjects", "setting": "ABT-894 1 mg QD, N = 46", "value": "(0) %"}, {"measurement": "Vomiting, number of subjects", "setting": "ABT-894 1 mg QD, N = 46", "value": 0, "unit": "subjects"}, {"measurement": "Any Adverse Event, % of subjects", "setting": "ABT-894 2 mg QD, N = 42", "value": "(61.9) %"}, {"measurement": "Any Adverse Event, number of subjects", "setting": "ABT-894 2 mg QD, N = 42", "value": 26, "unit": "subjects"}, {"measurement": "Decreased appetite, % of subjects", "setting": "ABT-894 2 mg QD, N = 42", "value": "(0) %"}, {"measurement": "Decreased appetite, number of subjects", "setting": "ABT-894 2 mg QD, N = 42", "value": 0, "unit": "subjects"}, {"measurement": "Diarrhea, % of subjects", "setting": "ABT-894 2 mg QD, N = 42", "value": "(4.8) %"}, {"measurement": "Diarrhea, number of subjects", "setting": "ABT-894 2 mg QD, N = 42", "value": 2, "unit": "subjects"}, {"measurement": "Dizziness, % of subjects", "setting": "ABT-894 2 mg QD, N = 42", "value": "(9.5) %"}, {"measurement": "Dizziness, number of subjects", "setting": "ABT-894 2 mg QD, N = 42", "value": 4, "unit": "subjects"}, {"measurement": "Dry mouth, % of subjects", "setting": "ABT-894 2 mg QD, N = 42", "value": "(0) %"}, {"measurement": "Dry mouth, number of subjects", "setting": "ABT-894 2 mg QD, N = 42", "value": 0, "unit": "subjects"}, {"measurement": "Fatigue, % of subjects", "setting": "ABT-894 2 mg QD, N = 42", "value": "(2.4) %"}, {"measurement": "Fatigue, number of subjects", "setting": "ABT-894 2 mg QD, N = 42", "value": 1, "unit": "subjects"}, {"measurement": "Feeling hot and cold, % of subjects", "setting": "ABT-894 2 mg QD, N = 42", "value": "(0) %"}, {"measurement": "Feeling hot and cold, number of subjects", "setting": "ABT-894 2 mg QD, N = 42", "value": 0, "unit": "subjects"}, {"measurement": "Feeling jittery, % of subjects", "setting": "ABT-894 2 mg QD, N = 42", "value": "(0) %"}, {"measurement": "Feeling jittery, number of subjects", "setting": "ABT-894 2 mg QD, N = 42", "value": 0, "unit": "subjects"}, {"measurement": "Headache, % of subjects", "setting": "ABT-894 2 mg QD, N = 42", "value": "(11.9) %"}, {"measurement": "Headache, number of subjects", "setting": "ABT-894 2 mg QD, N = 42", "value": 5, "unit": "subjects"}, {"measurement": "Lethargy, % of subjects", "setting": "ABT-894 2 mg QD, N = 42", "value": "(0) %"}, {"measurement": "Lethargy, number of subjects", "setting": "ABT-894 2 mg QD, N = 42", "value": 0, "unit": "subjects"}, {"measurement": "Muscle Strain, % of subjects", "setting": "ABT-894 2 mg QD, N = 42", "value": "(0) %"}, {"measurement": "Muscle Strain, number of subjects", "setting": "ABT-894 2 mg QD, N = 42", "value": 0, "unit": "subjects"}, {"measurement": "Nasal congestion, % of subjects", "setting": "ABT-894 2 mg QD, N = 42", "value": "(0) %"}, {"measurement": "Nasal congestion, number of subjects", "setting": "ABT-894 2 mg QD, N = 42", "value": 0, "unit": "subjects"}, {"measurement": "Nausea, % of subjects", "setting": "ABT-894 2 mg QD, N = 42", "value": "(14.3) %"}, {"measurement": "Nausea, number of subjects", "setting": "ABT-894 2 mg QD, N = 42", "value": 6, "unit": "subjects"}, {"measurement": "Parathesia, % of subjects", "setting": "ABT-894 2 mg QD, N = 42", "value": "(0) %"}, {"measurement": "Parathesia, number of subjects", "setting": "ABT-894 2 mg QD, N = 42", "value": 0, "unit": "subjects"}, {"measurement": "Sleep disturbances, % of subjects", "setting": "ABT-894 2 mg QD, N = 42", "value": "(14.3) %"}, {"measurement": "Sleep disturbances, number of subjects", "setting": "ABT-894 2 mg QD, N = 42", "value": 6, "unit": "subjects"}, {"measurement": "Somnolence, % of subjects", "setting": "ABT-894 2 mg QD, N = 42", "value": "(0) %"}, {"measurement": "Somnolence, number of subjects", "setting": "ABT-894 2 mg QD, N = 42", "value": 0, "unit": "subjects"}, {"measurement": "Upper RTI, % of subjects", "setting": "ABT-894 2 mg QD, N = 42", "value": "(7.1) %"}, {"measurement": "Upper RTI, number of subjects", "setting": "ABT-894 2 mg QD, N = 42", "value": 3, "unit": "subjects"}, {"measurement": "Vomiting, % of subjects", "setting": "ABT-894 2 mg QD, N = 42", "value": "(2.4) %"}, {"measurement": "Vomiting, number of subjects", "setting": "ABT-894 2 mg QD, N = 42", "value": 1, "unit": "subjects"}, {"measurement": "Any Adverse Event, % of subjects", "setting": "ABT-894 4 mg BID, N = 46", "value": "(54.3) %"}, {"measurement": "Any Adverse Event, number of subjects", "setting": "ABT-894 4 mg BID, N = 46", "value": 25, "unit": "subjects"}, {"measurement": "Decreased appetite, % of subjects", "setting": "ABT-894 4 mg BID, N = 46", "value": "(0) %"}, {"measurement": "Decreased appetite, number of subjects", "setting": "ABT-894 4 mg BID, N = 46", "value": 0, "unit": "subjects"}, {"measurement": "Diarrhea, % of subjects", "setting": "ABT-894 4 mg BID, N = 46", "value": "(2.2) %"}, {"measurement": "Diarrhea, number of subjects", "setting": "ABT-894 4 mg BID, N = 46", "value": 1, "unit": "subjects"}, {"measurement": "Dizziness, % of subjects", "setting": "ABT-894 4 mg BID, N = 46", "value": "(2.2) %"}, {"measurement": "Dizziness, number of subjects", "setting": "ABT-894 4 mg BID, N = 46", "value": 1, "unit": "subjects"}, {"measurement": "Dry mouth, % of subjects", "setting": "ABT-894 4 mg BID, N = 46", "value": "(2.2) %"}, {"measurement": "Dry mouth, number of subjects", "setting": "ABT-894 4 mg BID, N = 46", "value": 1, "unit": "subjects"}, {"measurement": "Fatigue, % of subjects", "setting": "ABT-894 4 mg BID, N = 46", "value": "(8.7) %"}, {"measurement": "Fatigue, number of subjects", "setting": "ABT-894 4 mg BID, N = 46", "value": 4, "unit": "subjects"}, {"measurement": "Feeling hot and cold, % of subjects", "setting": "ABT-894 4 mg BID, N = 46", "value": "(0) %"}, {"measurement": "Feeling hot and cold, number of subjects", "setting": "ABT-894 4 mg BID, N = 46", "value": 0, "unit": "subjects"}, {"measurement": "Feeling jittery, % of subjects", "setting": "ABT-894 4 mg BID, N = 46", "value": "(0) %"}, {"measurement": "Feeling jittery, number of subjects", "setting": "ABT-894 4 mg BID, N = 46", "value": 0, "unit": "subjects"}, {"measurement": "Headache, % of subjects", "setting": "ABT-894 4 mg BID, N = 46", "value": "(8.7) %"}]}]}
